Tested on: HCV genotype 1a replicon
Assay: HCV genotype 1a replicon assay (NS3 protease activity readout)
Type: cell-based, hepatitis C virus
Conditions: HCV genotype 1a replicon
Experimental: Assay 2: HCV Genotype 1a Replicon Assay
The HCV genotype 1a replicon cell line was obtained from Apath LLC (APC89; Huh7.5 cell background). This subgenomic replicon contains the N-terminus of the HCV core protein fused to the neomycin-resistance selectable marker. The EMCV IRES lies downstream and drives expression of the non-structural proteins NS3-NS5B. Compound potencies were determined using the NS3-specific protease activity in lysates as a measurement of compound inhibition of replicon levels.
Cells were grown at 37° C. in a 5% CO2 humidified incubator in DMEM (Invitrogen) with 10% FBS (HyClone), 1×NEAA (Invitrogen), 1× Pen-Strep (Invitrogen), and 850 μg/mL G418 (Invitrogen). On day 1 of the assay, cells were plated at 15,000 cells/well in black 96-well tissue culture plates (Costar) in 200 μL media lacking G418. Four hours later, once the cells had adhered, the media was removed and replaced with media (no G418) containing dose-responses of test compounds. Compounds were initially diluted in DMSO and then diluted another 200× in media to bring the final DMSO concentration down to 0.5%. The cells were incubated with test compounds for 48 or 72 hours. At the end of the incubation period, media and compound were removed from the plates.
To determine the NS3-specific protease activity in lysates, the cells were lysed at room temperature in 50 μL/well of 50 mM Hepes pH 7.5, 150 mM NaCl, 15% Glycerol, 0.15% Triton X-100, 10 mM DTT for 20 minutes with shaking. 50 μL of an NS3/4a protease-specific FRET substrate (Anaspec RET S1 Cat#22991) was then added to the wells at a final concentration of 15 μM. The plates were incubated at 37° C. for 20 minutes, which corresponds to a timepoint at which the protease activity is still in the linear phase. Protease activity was determined by measuring fluorescence (Excitation: 340 nm; Emission: 509 nm).
To analyze the data, the fluorescence was plotted vs. the compound concentration, and EC50 values were determined from a 4-parameter robust fit model using GraphPad Prism software.

Q: `CNC(=O)N1C[C@@H](C)N(c2ccc(C(=O)Nc3cc(OC(F)(F)F)c(-c4ccc(-c5c[nH]c([C@@H]6C[C@H](C)CN6C(=O)[C@@H](NC(=O)OC)C6CC6)n5)cc4)cc3Cl)cn2)C[C@@H]1C` [Example 7-3] was tested. Which “Genotype 1a” value did it give?
A: D (D represents pEC50>10 (EC50<0.1 nM))

Q: `COC(=O)N[C@H](C(=O)N1C[C@@H](C)C[C@H]1c1nc(-c2ccc(-c3ccc(C(=O)Nc4ccc(N5C[C@H](C)N(C(=O)NC(C)C)C[C@H]5C)nc4)cc3OC(F)(F)F)cc2)c[nH]1)C(C)C` [Example 4-25] was tested. Which “Genotype 1a” value did it give?
A: C (C represents pEC50 between and 9 and about 10, (EC50 between 1 nM and 0.1 nM))

Q: How did the “Genotype 1a” value turn out when `COC(=O)NC(C(=O)N1C[C@@H](OC)C[C@H]1c1nc(-c2ccc(-c3cc(Cl)c(NC(=O)c4ccc(N5CCN(C(=O)C(C)(C)C)C[C@H]5C)nc4)cc3C(F)(F)F)cc2)c[nH]1)C1CCS(=O)(=O)CC1` (single isomer, unassigned) [Example 19-18] was run?
A: C (C represents pEC50 between and 9 and about 10, (EC50 between 1 nM and 0.1 nM))

Q: Which “Genotype 1a” value does the source give for `COC(=O)N[C@H](C(=O)N1C[C@@H](C)C[C@H]1c1nc(-c2ccc(-c3cc(Cl)c(NC(=O)c4ccc(N5CCN(C(=O)NC(C)C)C[C@H]5C)nc4)cc3OC(F)(F)F)cc2)c[nH]1)C(C)C` [Example 1-72] here?
A: D (D represents pEC50>10 (EC50<0.1 nM))

Q: Which “Genotype 1a” value does the source give for `COC(=O)N[C@H](C(=O)N1C[C@@H](C)C[C@H]1c1nc(-c2ccc(-c3ccc(NC(=O)c4ccc(N5CCN(C(=O)C(C)(C)C)C[C@H]5C)nc4)cc3C(F)(F)F)cc2)c[nH]1)C(C)C` [Example 1-63] here?
A: D (D represents pEC50>10 (EC50<0.1 nM))

Q: How did the “Genotype 1a” value turn out when `COC(=O)N[C@H](C(=O)N1C[C@@H](C)C[C@H]1c1nc(-c2ccc(-c3cc(Cl)c(NC(=O)c4ccc(N5CCN(C(=O)NN(C)C)C[C@H]5C)nc4)cc3OC(F)(F)F)cc2)c[nH]1)C(C)C` [Example 1-94] was run?
A: D (D represents pEC50>10 (EC50<0.1 nM))

Q: `COC(=O)N[C@H](C(=O)N1C[C@@H](C)C[C@H]1c1nc(-c2ccc(-c3cc(Cl)c(NC(=O)c4ccc(N5CCN(C(=O)C(O)C(F)(F)F)C[C@H]5C)nc4)cc3OC(F)(F)F)cc2)c[nH]1)C(C)C` (stereo partly shown) [Example 1-97] was tested. Which “Genotype 1a” value did it give?
A: C (C represents pEC50 between and 9 and about 10, (EC50 between 1 nM and 0.1 nM))

Q: `COC(=O)N[C@H](C(=O)N1C[C@@H](C)C[C@H]1c1nc(-c2ccc(-c3cc(F)c(NC(=O)c4ccc(N5CCN(C(=O)[C@]6(C)CCCN6C(=O)OC(C)(C)C)C[C@H]5C)nc4)cc3OC(F)(F)F)cc2)c[nH]1)C(C)C` [Example 1-26] was tested. Which “Genotype 1a” value did it give?
A: D (D represents pEC50>10 (EC50<0.1 nM))

Q: With `COC[C@H]1C[C@@H](c2nc(-c3ccc(-c4ccc(C(=O)Nc5ccc(N6CCN(C(=O)C(C)(C)C)C[C@H]6C)nc5)c(Cl)c4OC(F)(F)F)cc3)c[nH]2)N(C(=O)[C@@H](NC(=O)OC)C2CCOCC2)C1` [Example 25-6] as the compound, how does the “Genotype 1a” value read?
A: C (C represents pEC50 between and 9 and about 10, (EC50 between 1 nM and 0.1 nM))

Q: For `COC(=O)N[C@H](C(=O)N1C[C@@H](C)C[C@H]1c1nc(-c2ccc(-c3cc(F)c(NC(=O)c4ccc(N5CCN(C(=O)[C@H]6CC6(C)C)C[C@H]5C)nc4)cc3Cl)cc2)c[nH]1)C(C)C` [Example 1-76], which “Genotype 1a” value is on record?
A: D (D represents pEC50>10 (EC50<0.1 nM))

Q: How did the “Genotype 1a” value turn out when `COC(=O)NC(C(=O)N1CC(F)CC1c1nc(-c2ccc(-c3cc(Cl)c(NC(=O)c4ccc(N5CCN(C(=O)C(C)(C)C)CC5C)nc4)cc3OC(F)(F)F)cc2)c[nH]1)C1CCOCC1` (stereo not shown) [Example 29-1] was run?
A: D (D represents pEC50>10 (EC50<0.1 nM))

Q: Which “Genotype 1a” value does the source give for `COC(=O)NC(C(=O)N1C[C@@H](C)C[C@H]1c1nc(-c2ccc(-c3c(F)cc(NC(=O)c4ccc(N5CCN(C(=O)C(C)(C)C)C[C@H]5C)nc4)cc3F)cc2)c[nH]1)C1CCCCC1` (stereo partly shown) [Example 21-4] here?
A: C (C represents pEC50 between and 9 and about 10, (EC50 between 1 nM and 0.1 nM))

Q: Which “Genotype 1a” value does the source give for `COC(=O)NC(C(=O)N1CC(C)CC1c1nc(-c2ccc(-c3cc(F)c(NC(=O)c4ccc(N5CCN(C(=O)C6CC6(Cl)Cl)CC5C)nc4)cc3Cl)cc2)c[nH]1)C(C)C` (mixture of isomers) [Example 1-77] here?
A: D (D represents pEC50>10 (EC50<0.1 nM))

Q: With `COC(=O)NC(C(=O)N1CC(OC)CC1c1nc(-c2ccc(-c3ccc(NC(=O)c4ccc(N5CCN(C(=O)C(C)(C)C)CC5C)nc4)cc3OC(F)(F)F)cc2)c[nH]1)C(C)OC` (stereo not shown) [Example 16-11] as the compound, how does the “Genotype 1a” value read?
A: D (D represents pEC50>10 (EC50<0.1 nM))

Q: With `CCC(=O)N1CCN(c2ccc(C(=O)Nc3cc(OC(F)(F)F)c(-c4ccc(-c5c[nH]c([C@@H]6C[C@H](C)CN6C(=O)[C@@H](NC(=O)OC)C(C)C)n5)cc4)cc3Cl)cn2)[C@H](C)C1` [Example 1-73] as the compound, how does the “Genotype 1a” value read?
A: D (D represents pEC50>10 (EC50<0.1 nM))

Q: With `CNC(=O)N1C[C@@H](C)N(c2ccc(C(=O)Nc3cc(OC(F)(F)F)c(-c4ccc(-c5c[nH]c([C@@H]6C[C@H](OC)CN6C(=O)[C@@H](NC(=O)OC)C6CCOCC6)n5)cc4)cc3Cl)cn2)C[C@@H]1C` [Example 28-8] as the compound, how does the “Genotype 1a” value read?
A: D (D represents pEC50>10 (EC50<0.1 nM))

Q: Which “Genotype 1a” value does the source give for `COC(=O)N[C@H](C(=O)N1C[C@@H](C)C[C@H]1c1nc(-c2ccc(-c3cc(Cl)c(NC(=O)c4ccc(N5CCN(C(=O)C6CC6)C[C@H]5C)nc4)cc3C(F)(F)F)cc2)c[nH]1)C(C)C` [Example 1-54] here?
A: D (D represents pEC50>10 (EC50<0.1 nM))

Q: Which “Genotype 1a” value does the source give for `COC(=O)NC(C(=O)N1CC(OC)CC1c1nc(-c2ccc(-c3cc(F)c(NC(=O)c4ccc(N5CCN(C(=O)C(C)(C)CO)CC5C)nc4)cc3OC(F)(F)F)cc2)c[nH]1)C(C)O` (stereo not shown) [Example 16-12] here?
A: C (C represents pEC50 between and 9 and about 10, (EC50 between 1 nM and 0.1 nM))

Q: How did the “Genotype 1a” value turn out when `COC(=O)N[C@H](C(=O)N1C[C@@H](C)C[C@H]1c1nc(-c2ccc(-c3ccc(C(=O)Nc4ccc(N5CCN(C(=O)C6CC6(Cl)Cl)C[C@H]5C)nc4)cc3OC(F)(F)F)cc2)c[nH]1)C(C)C` (stereo partly shown) [Example 4-32] was run?
A: C (C represents pEC50 between and 9 and about 10, (EC50 between 1 nM and 0.1 nM))

Q: With `COC(=O)N[C@H](C(=O)N1C[C@@H](OC)C[C@H]1c1nc(-c2ccc(-c3cc(Cl)c(NC(=O)c4ccc(N5C[C@H](C)N(C(=O)C(C)(C)CO)C[C@H]5C)nc4)cc3OC(F)(F)F)cc2)c[nH]1)C1CCOCC1` [Example 28-5] as the compound, how does the “Genotype 1a” value read?
A: D (D represents pEC50>10 (EC50<0.1 nM))

Same assay, conditions: Hepatitis C virus, read-out: Genotype 1a, HCV genotype 1a replicon

Q: With `COC(=O)N[C@H](C(=O)N1C[C@@H](C)C[C@H]1c1nc(-c2ccc(-c3cc(Cl)c(NC(=O)c4ccc(N5CCN(C(=O)c6ccccn6)C[C@H]5C)nc4)cc3OC(F)(F)F)cc2)c[nH]1)C(C)C` [Example 12-7] as the compound, how does the EC50 read?
A: 0.1 to 1 nM

Q: `COC(=O)N[C@@H](C(=O)N1C[C@@H](C)C[C@H]1c1nc(-c2ccc(-c3cc(Cl)c(NC(=O)c4ccc(N5CCN(C(=O)C(C)(C)C)C[C@H]5C)nc4)cc3OC(F)(F)F)cc2)c[nH]1)C1C[C@@H](C)O[C@@H](C)C1` (stereo partly shown) [Example 13-43] was tested. Which EC50 did it give?
A: 1 to 10 nM

Q: `COC(=O)N[C@H](C(=O)N1C[C@@H](C)C[C@H]1c1nc(-c2ccc(-c3cc(Cl)c(NC(=O)c4ccc(N5CCN(C(=O)CC6CCOCC6)C[C@H]5C)nc4)cc3OC(F)(F)F)cc2)c[nH]1)C(C)C` [Example 12-28] was tested. Which EC50 did it give?
A: < 0.1 nM

Q: `COC(=O)NC(C(=O)N1C[C@@H](C)C[C@H]1c1nc(-c2ccc(-c3ccc(C(=O)Nc4ccc(N5CCN(C(=O)C(C)(C)C)C[C@H]5C)nc4)c(Cl)c3OC(F)(F)F)cc2)c[nH]1)C1CCOCC1` (stereo partly shown) [Example 25-3] was tested. Which EC50 did it give?
A: 0.1 to 1 nM

Q: `COC(=O)N[C@H](C(=O)N1C[C@@H](C)C[C@H]1c1nc(-c2ccc(-c3cc(Cl)c(NC(=O)c4ccc(N5CCN(C(=O)C6CC(CO)C6)C[C@H]5C)nc4)cc3OC(F)(F)F)cc2)c[nH]1)C(C)C` (stereo partly shown) [Example 12-55] was tested. Which EC50 did it give?
A: < 0.1 nM

Q: How did the EC50 turn out when `COC(=O)N[C@H](C(=O)N1C[C@@H](C)C[C@H]1c1nc(-c2ccc(-c3cc(Cl)c(NC(=O)c4ccc(N5CCN(C(=O)C(C)(C)N(C)C)C[C@H]5C)nc4)cc3OC(F)(F)F)cc2)c[nH]1)C(C)C` [Example 12-20] was run?
A: < 0.1 nM

Q: Which EC50 does the source give for `COC(=O)N[C@H](C(=O)N1[C@@H]2C[C@@H]2C[C@H]1c1nc(-c2ccc(-c3cc(Cl)c(NC(=O)c4ccc(N5CCN(C(=O)C6CC6)C[C@H]5C)nc4)cc3C(F)(F)F)cc2)c[nH]1)C(C)C` [Example 8-3] here?
A: 0.1 to 1 nM

Q: `COC(=O)N[C@H](C(=O)N1C[C@@H](C)C[C@H]1c1nc(-c2ccc(-c3cc(F)c(NC(=O)c4ccc(N5CCN(C(=O)C(C)(C)CO)C[C@H]5C)nc4)cc3OC(F)(F)F)cc2)c[nH]1)[C@H](C)O` [Example 13-26] was tested. Which EC50 did it give?
A: < 0.1 nM

Q: How did the EC50 turn out when `COC(=O)N[C@H](C(=O)N1CC2(C[C@H]1c1nc(-c3ccc(-c4ccc(NC(=O)c5ccc(N6CCN(C(=O)[C@]7(C)CCCN7C(=O)[C@@H](NC(=O)OC)C(C)C)C[C@H]6C)nc5)cc4OC(F)(F)F)cc3)c[nH]1)OCCO2)C(C)C` [Example 5-1] was run?
A: < 0.1 nM

Q: Which EC50 does the source give for `COC(=O)N[C@H](C(=O)N1C[C@@H](N2CCCC2)C[C@H]1c1nc(-c2ccc(-c3cc(Cl)c(NC(=O)c4ccc(N5CCN(C(=O)C(C)(C)C)C[C@H]5C)nc4)cc3OC(F)(F)F)cc2)c[nH]1)C(C)C` [Example 15-9] here?
A: < 0.1 nM

Q: For `COCC(=O)N1CCC[C@@]1(C)C(=O)N1CCN(c2ccc(NC(=O)c3ccc(-c4ccc(-c5c[nH]c([C@@H]6C[C@@H]7CCCC[C@@H]7N6C(=O)[C@@H](NC(=O)OC)C(C)C)n5)cc4)c(OC(F)(F)F)c3)cn2)[C@H](C)C1` [Example 6-13], which EC50 is on record?
A: < 0.1 nM

Source: patent publication US9212168B2 (priority 2011, dated 2015)
